In paper PMC4349960, “[^18F]FE@SUPPY: a suitable PET tracer for the adenosine A3 receptor? An in vivo study in rodents” (European Journal of Nuclear Medicine and Molecular Imaging, 2015):
“Also recorded” adds a separate entry of the source.

What was measured:
[1] = In vitro plasma stability, rat plasma; assay type: in vitro ADME
Experimental: (§1) Experiments were conducted following a standard protocol. Briefly, [^18F]FE@SUPPY was added to lithium-heparinized human or rat plasma and after predetermined times (0, 60 and 120 min), the incubation mixture was eluted through a preconditioned SPE cartridge. The washed and newly eluted eluate solutions were injected into the radio-HPLC system (HPLC system as described in the section Ex vivo stability). The stationary phase was an analytical HPLC column LiChrospher LICHROCART® RP-18e (5 μm), 125 × 4 mm precolumn, and the mobile phase consisted of sodium citrate tribasic dehydrate (buffered at 0.034 M, pH 2.5)/acetonitrile 32:68 at a flow rate of 2 mL/min. Samples were incubated with a Thermomixer Compact from Eppendorf (Vienna, Austria) and centrifuged with a Universal 30 RF centrifuge from Hettich (Tuttlingen, Germany).

[2] = tested on: P-gp; test: Small-animal PET in rats: efflux (P-gp) inhibition; assay type: in vivo
Excerpt: A microPET Focus220 scanner (Siemens, Medical Solutions) was used for the experiments. […] The resolution of the reconstructed images (filtered back projection) was 1.3 mm (full-width at half-maximum) in the central field of view and remained under 2 mm within the central 5 cm diameter field of view [15]. For PET imaging two groups of animals (rats and xenografted mice) were investigated. Rats were divided into four groups.
Anaesthetized animals were positioned in the imaging chamber of the microPET scanner, which was kept at 38 °C throughout the experiment. […]
For all PET scans (rats and xenografted mice), list mode data were acquired with an energy window of 350 – 750 keV (rats) or 250 – 750 keV (mice) and a 6-ns timing window. Before each PET scan, a transmission scan using a ^57Co point source was recorded over 10 min. […] A calibration factor for converting units of microPET images into absolute radioactivity concentration units was first generated by imaging a phantom filled with a known concentration of [^18F]FDG.
Rat brains were manually outlined on multiple planes of the PET summation images using the image analysis software PMOD 3.1 (Pmod Ltd, Zürich, Switzerland) or Amide [18]. […] To facilitate comparison of TACs of different animals, radioactivity concentrations were normalized to dose and weight and expressed as standardized uptake value (SUV, %ID/cm^3 or %ID/g). […]

[3] = In vitro plasma stability, human plasma; assay type: in vitro ADME; conditions: 0-120 min
Experimental: as §1

[4] = design: method as in PMID 20447552; conditions: rats, 30 min after injection; cited from earlier work
[5] = design: method as in PMID 18158944; conditions: cited from earlier work

## CCSC(=O)c1c(CC)nc(-c2ccccc2)c(C(=O)OCC[18F])c1CC [[^18F]FE@SUPPY, 5-(2-[^18F]fluoroethyl)-2,4-diethyl-3-(ethylsulfanylcarbonyl)-6-phenylpyridine-5-carboxylate]
[1]; 60 min
  radioactivity from metabolites in rat plasma: 18.7 ± 3%
[1]; 120 min
  radioactivity from metabolites in rat plasma: 35.0 ± 4%
[1]; observation period of 120 min
  radioactive metabolites in rat plasma over the observation period: 19 – 35%
[2]; TQD-treated group (15 mg/kg, 60 min before tracer)
  peak brain activity: 1.53 ± 0.01 SUV
[2]; untreated group
  peak brain activity: 1.56 ± 0.22 SUV
[3]
  stability in human plasma: no degradation; also recorded: no metabolites were observed; also recorded: Stable over 120 min in human plasma
[4]
  metabolites in brain: no metabolites
  parent compound left in plasma: 30%
[5]
  Biodistribution in rats: Followed mainly A3 pattern (except testes) [3]
  Bone uptake in rats: None [3]
[5]; rats
  Brain to blood uptake ratio in biodistribution experiments: up to 5.4
  brain-to-blood ratios over time: increase over time
